The text below walks through data of patent US11427528B2 (Zhejiang University of Technology, priority 2016, dated 2022).

“Also recorded” adds a separate entry of the source. Where two headings read alike, the source gives them in different places.

For data set [1] the following is noted: cited from earlier work.
Data set [2] is described as follows: Stability experiment, high humidity (XRPD). Format: physicochemical. Particulars: 90±5% RH, 25° C., open petri dish, XRPD compared with 0th day. The protocol: (§1) The instrument used for collecting X-ray powder diffraction (XRPD) patterns is Bruker D8 Advance diffractometer. The samples are tested at room temperature under the following conditions: 2θ scan range, 3-40°; step size, 0.02°/step; speed, 0.2 s/step.
(§2) They were placed at 4500±500 lx light exposure, and 90±5% RH humidity chamber at 25° C., respectively. The XRPD results of the 5th day and 10th day were compared with that of the 0th day.

Data set [3] is described as follows: Grinding test in ball mill (XRPD). Type of data set: physicochemical. Particulars: 20 Hz, 100 mg, XRPD compared with unground sample. The protocol:
as §1

The nature of data set [4]: Stability experiment, light exposure (XRPD). Type of data set: physicochemical. Particulars: 4500±500 lx, 25° C., open petri dish, XRPD compared with 0th day. The method, then: as §1, §2
Data set [5] in a line: Storage stability at room temperature. Format: physicochemical. Particulars: 3 months.

Turning to `CC(C)OC(=O)C(C)(C)Oc1ccc(C(=O)c2ccc(Cl)cc2)cc1` [Form III], the “Form change at room temperature” value in data set [1] (in one day at room temperature) was “transformed to Form II and Form I”.

With `CC(C)OC(=O)C(C)(C)Oc1ccc(C(=O)c2ccc(Cl)cc2)cc1` [Form II], in data set [1] (after two days at room temperature), the “Form change at room temperature” value is “transformed to Form I”. For the same compound, the “Form change after mechanical grinding” value in data set [1] (mechanical grinding) was “transformed to Form I”.

Regarding `CC(C)OC(=O)C(C)(C)Oc1ccc(C(=O)c2ccc(Cl)cc2)cc1` [Form I, reference compound], the “Crystalline form after high humidity for 10 days” value in data set [2] was “Form I”. Moreover, the “Crystalline form after grinding for 10 min” value in data set [3] is “Form I”. Also, in data set [4], the “Crystalline form after light exposure for 10 days” value is recorded as “Form I”.

`CC(C)OC(=O)C(C)(C)Oc1ccc(C(=O)c2ccc(Cl)cc2)cc1` [Form IV]: the “Crystalline form after high humidity for 10 days” value in data set [2] is given as “does not change its crystalline form; also recorded: Form IV”. Further, in data set [5], the “Stability at room temperature” value is “remains stable”. Further, the “Crystalline form after grinding for 10 min” value in data set [3] is “does not change its crystalline form; also recorded: Form IV”. In addition, in data set [4], the “Crystalline form after light exposure for 10 days” value is on record as “does not change its crystalline form; also recorded: Form IV”.
